These are literature values, as cited in patent US20240238196A1 (Shilpa Medicare Limited, priority 2021, published 2024).

Consider `O=C(NC[C@H]1CN(c2ccc(N3CCOCC3=O)cc2)C(=O)O1)c1ccc(Cl)s1` [Rivaroxaban, 5-Chloro-N-({(5S)-2-oxo-3-[4-(3-oxo-4-morpholinyl)phenyl]-1,3-oxazolidin5-yl}methyl)-2-thiophenecarboxamide], for which the “Solubility in organic solvents” value (organic solvents, slightly soluble, according to CHMP assessment report for Xarelto) is 1000 to 10000 µg/mL. For the same compound, the “Solubility in water (in words)” value (water) was “practically insoluble”.
